Values joined by “and” are separate entries in the source; they are usually repeats but may differ in a detail not shown here. Equal entries are not always repeated.
Legend:
[1] = test system: Pseudomonas aeruginosa ST773; assay: MIC determination, fixed concentration of sBLI (Examples 19-26); format: cell-based; conditions: NDM-1, OXA-395, PDC-16, caMHB
Description: (§1) Antimicrobial susceptibility testing (AST) by broth microdilution (MIC determination) was performed according to The European Committee on Antimicrobial Susceptibility Testing (EUCAST) guidelines (see Reading guide for broth microdilution Version 5.0, 2024: https://www.eucast.org).
(§2) For combinations containing meropenem as the antibiotic, Sensititre™ FINMER meropenem 64-0.03 μg/mL plates (Thermo Fischer Diagnostics custom plates; YFINMER) were used in most of the experiments. For other antibiotics (and for meropenem whenever a higher start concentration than 64 μg/mL was needed) sterile clear round bottom polystyrene (non-treated) 96-well microplates (Corning 3788) were used for making serial two-fold dilutions of the antibiotic in cation-adjusted Mueller Hinton II broth (caMHB; Thermo Scientific, T3462, containing 29.4 μM Zn^2+ or MILLIPORE, 90922-500G, containing 5.6 μM Zn^2+), across the columns of the microtiter plate (128-0.06 μg/mL; columns 1-12).
(§3) The checkerboard plates were all modified by adding a serine β-lactamase inhibitor (sBLI) at a fixed concentration of 16 μg/mL. Additionally, the zinc chelator was added at various fixed concentrations. Samples were mixed so that all plates contained a control containing antibiotic alone (no sBLI, no zinc chelator), a sample containing antibiotic and sBLI (double combination; no zinc chelator), and a sample containing antibiotic, sBLI and zinc chelator (triple combination). All test wells used in each plate contained growth medium (caMHB), and inoculated bacteria at a final inoculum between 3-7×10^5 CFU/mL. […] Synergy for the triple combination (antibiotic, sBLI, and zinc chelator) was defined as when the MIC in any of the rows containing the zinc chelator in combination with antibiotic and sBLI (triple combination), was lower than for antibiotic alone and lower than for the antibiotic and sBLI double combination.
(§4) An X in rows 1~4 in the table indicates growth of the bacterial inoculum, while a blank cell indicates no growth. Concentrations (μg/mL) of MEM are given in row 0. TAZ and the zinc chelator were added in fixed concentrations (TAZ at 16 μg/mL in rows 2-4, zinc chelator at 16 μg/mL in row 3 and at 8 μg/mL in row 4). As a control, the effect of MEM alone was tested (row 1). All wells contained bacterial growth medium (caMHB, 29.4 μM Zn^2+) and were inoculated with the test bacterium. The grey cells indicate the meropenem MIC.
as §4, with “AZT” for “MEM”, “AVI” for “TAZ”, “(AVI” for “(TAZ”, “aztreonam” for “meropenem”
(§5) Two technical replicates were performed for each sample. An X in rows 1-8 in the table indicates growth of the bacterial inoculum, while a blank cell indicates no growth. Concentrations (μg/mL) of PIP are given in row 0. AVI and the zinc chelator were added in fixed concentrations (AVI at 16 μg/mL in rows 3-8, zinc chelator at 16 μg/mL in rows 5-6 and at 8 μg/mL in rows 7-8). As a control, the effect of PIP alone was tested (rows 1-2). All wells contained bacterial growth medium (caMHB, 29.4 μM Zn^2+) and were inoculated with the test bacterium. The grey cells indicate the piperacillin MIC.
as §4, with “PIP” for “MEM”, “All wells contained bacterial growth medium (caMHB, 29.4 μM Zn^2+) and were inoculated with the test bacterium. The grey cells indicate the meropenem MIC.” left out

[2] = test system: Acinetobacter baumannii ST15; assay: MIC determination, fixed concentration of sBLI (Examples 11-18); format: cell-based; conditions: NDM-1, OXA-51, ADC-263, caMHB
Description: as §1, §2, §3
as §4, with “SUL” for “TAZ”, “(SUL” for “(TAZ”
as §4, with “AMOX” for “MEM”, “SUL” for “TAZ”, “(SUL” for “(TAZ”, “amoxicillin” for “meropenem”
as §5, with “AMP” for “PIP”, “SUL” for “AVI”, “(SUL” for “(AVI”, “The grey cells indicate the piperacillin MIC.” left out

With CN(C[C@H](O)[C@@H](O)[C@H](O)[C@H](O)CO)C(=O)c1ccc(CN(Cc2ccccn2)Cc2ccccn2)nc1 [zinc chelator] the “Synergy with the zinc chelator observed at concentration” value (“Synergy with the zinc chelator observed” for short) ([1]; Example 19, with MEM and TAZ 16 μg/mL, 29.4 μM Zn2+) was 16 µg/mL, the “Synergy with the zinc chelator observed” value ([1]; Example 20, with AZT and AVI 16 μg/mL, 29.4 μM Zn2+) was 16 µg/mL and the “Synergy with the zinc chelator observed” value ([1]; Example 21, with PIP and AVI 16 μg/mL, 29.4 μM Zn2+, 8 μg/mL for one replicate only, other replicate not interpretable) was 16 µg/mL and 8 µg/mL. For the same compound, the “Synergy with the zinc chelator observed” value ([1]; Example 22, with PIP and TAZ 16 μg/mL, 29.4 μM Zn2+) was 16 µg/mL, the “Synergy with the zinc chelator observed” value ([1]; Example 24, with MEM and TAZ 16 μg/mL, 5.6 μM Zn2+, 16 and 4 μg/ml not interpretable according to EUCAST) was 8 µg/mL and the “Synergy with the zinc chelator observed” value ([1]; Example 26, with PIP and TAZ 16 μg/mL, 5.6 μM Zn2+, 16 μg/mL not interpretable according to EUCAST) was 8 µg/mL and 4 µg/mL. The “Synergy with the zinc chelator observed” value ([2]; Example 11, with MEM and SUL 16 μg/mL, 29.4 μM Zn2+) was 16 µg/mL, the “Synergy with the zinc chelator observed” value ([2]; Example 12, with AMOX and SUL 16 μg/mL, 29.4 μM Zn2+) was 16 µg/mL and the “Synergy with the zinc chelator observed” value ([2]; Example 13, with AMP and SUL 16 μg/mL, 29.4 μM Zn2+) was 16 µg/mL. The “Synergy with the zinc chelator observed” value ([2]; Example 14, with PIP and TAZ 16 μg/mL, 29.4 μM Zn2+) was 16 µg/mL and 8 µg/mL and the “Synergy with the zinc chelator observed” value ([2]; Example 18, with PIP and TAZ 16 μg/mL, 5.6 μM Zn2+) was 16 µg/mL and 8 µg/mL.
